# From PMC7753922, “Effect of the anti-parasitic compounds pyrvinium pamoate and artemisinin in enzymatic and culture assays: Data on the search for new anti-echinococcal drugs” (Data in Brief, 2020)
# Like-named read-outs stand apart in the source and are kept apart here.
# Tests used:
# Format in all cases: biochemical
# [1] = target: T1, mitochondrial complex II (succinate-quinone reductase, SQR) (Echinococcus multilocularis, UniProt A0A1Z4EAV8+A0A1Z4EAW8+A0A1Z4EAX0+A0A1Z4EAX1); assay: spectrophotometric succinate-quinone reductase assay, mitochondrial fraction; details: 30 mM potassium phosphate, 1 mM MgCl2, pH 7.5, 25 °C
# T1 construct: gene SDHB1; native complex II in freeze-thawed enriched mitochondrial fraction of protoscoleces; not purified
# Source text: spectrophotometric succinate-quinone reductase assay, mitochondrial fraction on mitochondrial complex II (succinate-quinone reductase, SQR)
# [2] = target: T2, mitochondrial complex I (NADH-ubiquinone reductase; NADH-decyl rhodoquinone reductase) (Echinococcus multilocularis, UniProt Q9TE76); assay: spectrophotometric NADH-quinone reductase assay, mitochondrial fraction; details: quinone acceptor decyl rhodoquinone (methods; table heads it NADH-ubiquinone reductase), 30 mM potassium phosphate, 1 mM MgCl2, pH 7.5, 25 °C
# T2 construct: gene ND1; native multi-subunit complex I in freeze-thawed enriched mitochondrial fraction of protoscoleces; not purified
# Source text: spectrophotometric NADH-quinone reductase assay, mitochondrial fraction on mitochondrial complex I (NADH-ubiquinone reductase; NADH-decyl rhodoquinone reductase)
# [3] = target: T3, succinate-cytochrome c reductase (mitochondrial complexes II and III) (Echinococcus multilocularis, UniProt Q9TE80); assay: spectrophotometric succinate-cytochrome c reductase assay, mitochondrial fraction; details: coupled complex II and III activity, 30 mM potassium phosphate, 1 mM MgCl2, pH 7.5, 25 °C
# T3 construct: gene Cytb; coupled activity of native complexes II and III in freeze-thawed enriched mitochondrial fraction of protoscoleces; not purified; with Succinate dehydrogenase [ubiquinone] flavoprotein subunit, mitochondrial; Succinate dehydrogenase [ubiquinone] iron-sulfur subunit, mitochondrial; Succinate dehydrogenase [ubiquinone] cytochrome b large subunit, mitochondrial; Succinate dehydrogenase [ubiquinone] cytochrome b small subunit, mitochondrial
# Source text: spectrophotometric succinate-cytochrome c reductase assay, mitochondrial fraction on succinate-cytochrome c reductase (mitochondrial complexes II and III)
# [4] = read-out: NADH-ubiquinone reductase / (Complex I)
# [5] = read-out: Succinate-quinone reductase: SQR / (Complex II)
# T3 sequence (Q9TE80 1-355): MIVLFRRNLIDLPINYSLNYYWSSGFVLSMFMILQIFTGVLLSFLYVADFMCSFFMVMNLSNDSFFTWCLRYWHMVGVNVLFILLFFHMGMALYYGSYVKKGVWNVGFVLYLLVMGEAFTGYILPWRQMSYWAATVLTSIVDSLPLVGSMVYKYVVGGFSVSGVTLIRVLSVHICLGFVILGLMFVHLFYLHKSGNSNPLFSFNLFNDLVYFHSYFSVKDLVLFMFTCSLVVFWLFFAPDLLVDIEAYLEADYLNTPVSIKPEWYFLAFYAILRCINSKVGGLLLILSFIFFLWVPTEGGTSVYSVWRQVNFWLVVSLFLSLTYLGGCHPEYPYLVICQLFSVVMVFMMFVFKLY
# T3 sequence (Q9GP40 whole entry partner): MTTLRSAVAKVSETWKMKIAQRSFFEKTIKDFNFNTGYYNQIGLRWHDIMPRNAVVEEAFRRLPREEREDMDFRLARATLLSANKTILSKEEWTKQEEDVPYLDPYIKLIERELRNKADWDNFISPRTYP
# T3 sequence (A0A1Z4EAV8 26-648 partner): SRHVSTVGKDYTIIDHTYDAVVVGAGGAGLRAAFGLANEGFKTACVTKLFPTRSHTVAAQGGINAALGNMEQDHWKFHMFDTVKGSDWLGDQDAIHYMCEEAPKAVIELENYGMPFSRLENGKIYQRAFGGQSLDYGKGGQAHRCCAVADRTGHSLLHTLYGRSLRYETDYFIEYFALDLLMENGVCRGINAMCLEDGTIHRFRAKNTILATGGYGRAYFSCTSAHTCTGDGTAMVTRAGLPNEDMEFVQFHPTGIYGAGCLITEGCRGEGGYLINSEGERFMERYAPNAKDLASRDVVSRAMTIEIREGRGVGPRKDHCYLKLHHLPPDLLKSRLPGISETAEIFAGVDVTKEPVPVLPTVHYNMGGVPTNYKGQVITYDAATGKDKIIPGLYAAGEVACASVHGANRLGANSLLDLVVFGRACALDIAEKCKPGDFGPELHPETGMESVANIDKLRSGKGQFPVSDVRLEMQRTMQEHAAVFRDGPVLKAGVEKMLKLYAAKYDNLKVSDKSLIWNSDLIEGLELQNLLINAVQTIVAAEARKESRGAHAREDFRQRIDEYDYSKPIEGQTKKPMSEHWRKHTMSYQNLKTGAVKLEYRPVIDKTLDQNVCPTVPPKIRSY
# T3 sequence (A0A1Z4EAX0 21-272 partner): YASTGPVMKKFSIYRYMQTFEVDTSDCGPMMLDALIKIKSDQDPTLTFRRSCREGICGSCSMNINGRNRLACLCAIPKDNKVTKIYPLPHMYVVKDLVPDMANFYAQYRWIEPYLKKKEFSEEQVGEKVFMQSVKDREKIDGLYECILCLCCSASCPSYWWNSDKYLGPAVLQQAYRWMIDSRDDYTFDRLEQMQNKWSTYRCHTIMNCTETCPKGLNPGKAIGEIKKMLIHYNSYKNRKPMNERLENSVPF
# T3 sequence (A0A1Z4EAX1 53-194 partner): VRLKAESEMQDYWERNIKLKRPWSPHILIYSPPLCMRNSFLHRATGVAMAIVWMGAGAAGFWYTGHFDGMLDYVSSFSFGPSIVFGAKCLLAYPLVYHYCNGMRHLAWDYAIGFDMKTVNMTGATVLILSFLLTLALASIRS
# T3 sequence (A0A1Z4EAW8 47-153 partner): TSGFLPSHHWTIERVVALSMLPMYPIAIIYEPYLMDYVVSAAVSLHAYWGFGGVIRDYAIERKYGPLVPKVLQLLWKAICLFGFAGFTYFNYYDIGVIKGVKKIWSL
# T2 sequence (Q9TE76 1-297): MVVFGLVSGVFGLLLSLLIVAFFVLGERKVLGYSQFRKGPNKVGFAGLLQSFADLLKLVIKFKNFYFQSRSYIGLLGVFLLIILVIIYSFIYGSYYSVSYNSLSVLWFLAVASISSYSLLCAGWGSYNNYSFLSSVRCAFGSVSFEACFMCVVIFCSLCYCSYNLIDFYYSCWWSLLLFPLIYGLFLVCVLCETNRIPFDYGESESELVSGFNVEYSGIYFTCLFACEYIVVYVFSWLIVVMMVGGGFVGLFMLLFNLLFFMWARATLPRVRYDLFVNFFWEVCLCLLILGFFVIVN
# T2 sequence (A0A068Y9L9 30-218 partner): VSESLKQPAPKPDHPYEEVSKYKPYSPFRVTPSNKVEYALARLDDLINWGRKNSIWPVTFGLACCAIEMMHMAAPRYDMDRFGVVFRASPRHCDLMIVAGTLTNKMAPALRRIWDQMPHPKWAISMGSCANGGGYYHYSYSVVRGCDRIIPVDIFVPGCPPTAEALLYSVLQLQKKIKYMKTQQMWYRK
# T2 sequence (A0A068YF50 31-207 partner): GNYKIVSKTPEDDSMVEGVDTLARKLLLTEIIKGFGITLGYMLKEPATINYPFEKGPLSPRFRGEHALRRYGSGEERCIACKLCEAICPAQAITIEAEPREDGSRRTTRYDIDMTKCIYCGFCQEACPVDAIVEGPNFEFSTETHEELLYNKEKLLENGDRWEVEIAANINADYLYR
# T1 sequence (A0A1Z4EAX0 21-272): as the sequence (A0A1Z4EAX0 21-272 partner) above
# T1 sequence (A0A1Z4EAX1 53-194): as the sequence (A0A1Z4EAX1 53-194 partner) above
# T1 sequence (A0A1Z4EAW8 47-153): as the sequence (A0A1Z4EAW8 47-153 partner) above
# T1 sequence (A0A1Z4EAV8 26-648): as the sequence (A0A1Z4EAV8 26-648 partner) above
SMILES,"IC50 [1, 4]",IC50 [2],"IC50 [3, 4]","IC50 [1, 5]","IC50 [3, 5]"
C[C@@H]1CC[C@H]2[C@@H](C)C(=O)O[C@@H]3O[C@@]4(C)CC[C@@H]1[C@]32OO4 [artemisinin],> 40 µM,> 40 µM,> 40 µM,–,–
Cc1cc(/C=C/c2ccc3cc(N(C)C)ccc3[n+]2C)c(C)n1-c1ccccc1 [pyrvinium pamoate],–,11 ± 0.3 µM,–,> 30 µM,> 30 µM
